Test results published in ChEMBL document CHEMBL1136786, “2002 Medicinal Chemistry Division Award address: monoamine transporters and opioid receptors. Targets for addiction therapy” (J Med Chem, 2003).
The source made the active and inactive calls. The rule behind the calls is not given here.

Tests used:
[1] = target: D(1A) dopamine receptor (Rattus norvegicus) (UniProt P18901); details: Striatum
[2] = target: D(1A) dopamine receptor (Rattus norvegicus) (UniProt P18901); details: Striatum; remark: listed apart in the source
Mus musculus [3] = species on record: Mus musculus; assay: Antagonistic activity of nicotine-induced hypothermia in mice was determined; format: functional
Rattus norvegicus [4] = assay: Time taken to produce maximal locomotor activity at 30 min period in rat by intraperitoneal administration; format: functional
[5] = target: Sodium-dependent serotonin transporter (Homo sapiens, UniProt P31645); assay: Inhibition of Serotonin (5-HT) reuptake using cloned human transporter was determined
[6] = target: T1, Norepinephrine transporter (Rattus norvegicus, UniProt Q9WTR4); assay: Inhibition of [3H]nisoxetine binding at norepinephrine transporter
T1 sequence (Q9WTR4 whole entry): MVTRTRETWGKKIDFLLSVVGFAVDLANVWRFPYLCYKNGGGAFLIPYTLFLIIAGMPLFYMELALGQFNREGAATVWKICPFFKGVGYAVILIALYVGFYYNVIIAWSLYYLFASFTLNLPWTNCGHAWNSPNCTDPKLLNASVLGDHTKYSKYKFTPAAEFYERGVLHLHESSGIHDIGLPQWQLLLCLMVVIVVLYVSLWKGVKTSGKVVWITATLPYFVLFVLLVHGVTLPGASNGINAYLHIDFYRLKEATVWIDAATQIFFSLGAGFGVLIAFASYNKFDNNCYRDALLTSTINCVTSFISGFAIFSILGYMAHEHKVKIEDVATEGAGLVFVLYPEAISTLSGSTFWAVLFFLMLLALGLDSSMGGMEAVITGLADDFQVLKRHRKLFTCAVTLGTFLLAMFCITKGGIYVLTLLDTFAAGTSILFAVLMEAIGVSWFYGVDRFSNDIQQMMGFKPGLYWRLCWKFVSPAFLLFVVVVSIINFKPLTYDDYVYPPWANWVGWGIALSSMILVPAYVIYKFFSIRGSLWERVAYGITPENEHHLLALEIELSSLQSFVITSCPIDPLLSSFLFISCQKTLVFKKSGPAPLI

Rattus norvegicus [7] = assay: Time during which activity returned to baseline level in rat by intraperitoneal administration; format: functional
[8] = target: T1, Norepinephrine transporter; assay: Affinity for norepinephrine transporter determined by [3H]nisoxetine displacement.
Rattus norvegicus [9] = assay: Effective dose of compound required to produce maximal locomotor activity in cocaine-trained rat by intraperitoneal administration; format: functional; details: ip
[10] = target: Sodium-dependent dopamine transporter (Homo sapiens, UniProt Q01959); assay: Inhibition of dopamine (DA) reuptake using cloned human dopamine transporter was determined
Sodium-dependent dopamine transporter (Homo sapiens, UniProt Q01959), sequence (Q01959 whole entry): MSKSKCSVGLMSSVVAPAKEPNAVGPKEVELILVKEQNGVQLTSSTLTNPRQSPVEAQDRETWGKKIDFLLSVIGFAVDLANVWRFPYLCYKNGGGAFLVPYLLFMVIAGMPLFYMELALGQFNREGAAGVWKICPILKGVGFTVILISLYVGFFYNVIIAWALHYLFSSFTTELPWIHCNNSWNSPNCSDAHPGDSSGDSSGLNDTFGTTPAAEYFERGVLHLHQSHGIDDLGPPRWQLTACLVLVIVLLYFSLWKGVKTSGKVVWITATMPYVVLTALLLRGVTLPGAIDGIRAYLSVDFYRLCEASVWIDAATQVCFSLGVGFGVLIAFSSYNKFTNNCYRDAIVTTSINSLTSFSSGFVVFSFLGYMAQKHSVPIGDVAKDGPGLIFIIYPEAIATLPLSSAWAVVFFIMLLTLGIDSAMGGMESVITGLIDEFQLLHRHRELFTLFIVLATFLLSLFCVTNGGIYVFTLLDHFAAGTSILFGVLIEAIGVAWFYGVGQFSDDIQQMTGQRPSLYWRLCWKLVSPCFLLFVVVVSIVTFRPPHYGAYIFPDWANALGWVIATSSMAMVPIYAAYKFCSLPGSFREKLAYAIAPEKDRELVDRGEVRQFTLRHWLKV

[11] = target: Sodium-dependent serotonin transporter (Rattus norvegicus, UniProt P31652); assay: Inhibition of [3H]paroxetine binding at serotonin transporter was determined
Sodium-dependent serotonin transporter (Rattus norvegicus, UniProt P31652), sequence (P31652 whole entry): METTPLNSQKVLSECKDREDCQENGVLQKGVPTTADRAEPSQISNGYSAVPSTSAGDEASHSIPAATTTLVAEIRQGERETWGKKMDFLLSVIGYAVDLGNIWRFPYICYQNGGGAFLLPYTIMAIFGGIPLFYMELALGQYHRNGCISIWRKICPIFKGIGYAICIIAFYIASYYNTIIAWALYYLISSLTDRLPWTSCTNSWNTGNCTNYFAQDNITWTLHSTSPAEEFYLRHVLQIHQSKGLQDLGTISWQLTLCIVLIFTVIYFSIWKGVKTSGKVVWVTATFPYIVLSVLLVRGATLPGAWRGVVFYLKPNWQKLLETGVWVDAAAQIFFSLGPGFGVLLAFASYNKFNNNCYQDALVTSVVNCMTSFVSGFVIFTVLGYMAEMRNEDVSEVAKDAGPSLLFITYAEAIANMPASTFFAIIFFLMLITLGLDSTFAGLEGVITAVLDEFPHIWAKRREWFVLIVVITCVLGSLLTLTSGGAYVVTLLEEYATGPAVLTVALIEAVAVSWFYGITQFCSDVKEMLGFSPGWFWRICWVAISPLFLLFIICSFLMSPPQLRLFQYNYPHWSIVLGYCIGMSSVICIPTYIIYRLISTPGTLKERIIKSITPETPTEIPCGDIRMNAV

[12] = target: Sodium-dependent noradrenaline transporter (Homo sapiens, UniProt P23975); assay: Inhibition of Norepinephrine (NA) reuptake using cloned human Norepinephrine transporter was determined
Sodium-dependent noradrenaline transporter, sequence (P23975 whole entry): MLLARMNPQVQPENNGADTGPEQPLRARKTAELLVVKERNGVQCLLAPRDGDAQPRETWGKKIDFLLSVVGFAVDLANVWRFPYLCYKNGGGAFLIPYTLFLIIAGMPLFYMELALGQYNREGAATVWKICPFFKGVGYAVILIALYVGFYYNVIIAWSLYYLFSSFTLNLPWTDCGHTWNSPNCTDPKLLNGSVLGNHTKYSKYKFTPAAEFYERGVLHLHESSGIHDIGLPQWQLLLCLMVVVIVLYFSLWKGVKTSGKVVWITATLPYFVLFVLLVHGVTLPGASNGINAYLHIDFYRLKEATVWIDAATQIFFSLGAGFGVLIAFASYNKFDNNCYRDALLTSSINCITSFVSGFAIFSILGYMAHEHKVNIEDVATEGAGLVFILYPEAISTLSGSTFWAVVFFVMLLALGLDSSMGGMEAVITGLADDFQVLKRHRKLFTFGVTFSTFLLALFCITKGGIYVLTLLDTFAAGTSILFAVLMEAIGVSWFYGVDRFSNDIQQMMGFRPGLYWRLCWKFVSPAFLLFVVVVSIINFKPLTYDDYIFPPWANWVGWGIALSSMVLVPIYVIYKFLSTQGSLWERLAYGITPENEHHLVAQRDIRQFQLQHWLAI

Rattus norvegicus [13] = assay: Effective dose of compound required to produce maximal locomotor activity in rat by intraperitoneal administration; format: functional; details: ip
Mus musculus [14] = species on record: Mus musculus; assay: Antagonistic activity of nicotine-induced analgesia in mice was determined; format: functional
[15] = target: Sodium-dependent dopamine transporter (Rattus norvegicus, UniProt P23977); assay: Inhibition of [3H]WIN-35428 binding at dopamine transporter was determined
Sodium-dependent dopamine transporter (Rattus norvegicus, UniProt P23977), sequence (P23977 whole entry): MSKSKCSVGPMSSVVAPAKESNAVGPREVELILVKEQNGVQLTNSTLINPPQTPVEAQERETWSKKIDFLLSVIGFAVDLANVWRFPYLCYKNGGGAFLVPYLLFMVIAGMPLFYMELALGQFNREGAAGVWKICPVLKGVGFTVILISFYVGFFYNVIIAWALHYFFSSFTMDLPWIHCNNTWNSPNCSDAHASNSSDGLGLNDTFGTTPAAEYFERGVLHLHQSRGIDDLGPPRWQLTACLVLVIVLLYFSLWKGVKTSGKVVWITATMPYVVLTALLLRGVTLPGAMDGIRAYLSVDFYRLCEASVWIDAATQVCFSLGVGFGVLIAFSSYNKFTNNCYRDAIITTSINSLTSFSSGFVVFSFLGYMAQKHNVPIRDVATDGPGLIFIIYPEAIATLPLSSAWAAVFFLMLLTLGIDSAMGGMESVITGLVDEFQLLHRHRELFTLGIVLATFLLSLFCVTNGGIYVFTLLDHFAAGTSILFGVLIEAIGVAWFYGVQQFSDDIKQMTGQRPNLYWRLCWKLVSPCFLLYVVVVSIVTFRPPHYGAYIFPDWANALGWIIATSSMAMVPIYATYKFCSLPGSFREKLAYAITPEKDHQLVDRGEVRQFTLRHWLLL

Rattus norvegicus [16] = assay: Maximal locomotor activity of compound compared as a percent of cocaine's effect in rat by intraperitoneal administration; format: functional
[17] = target: Mu-type opioid receptor (Cavia porcellus) (UniProt P97266); assay: Inhibition of [35S]GTP-gamma-S, binding in guines pig caudate stimulated by DAMGO for Opioid receptor mu 1; format: functional
Mu-type opioid receptor (Cavia porcellus), sequence (P97266 whole entry): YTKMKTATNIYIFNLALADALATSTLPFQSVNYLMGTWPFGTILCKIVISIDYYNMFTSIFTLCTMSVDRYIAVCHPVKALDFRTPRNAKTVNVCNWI

[18] = target: Kappa-type opioid receptor (Cavia porcellus) (UniProt P41144); assay: Inhibition of [35S]GTP-gamma-S, binding in guines pig caudate stimulated by U69, 593 of Opioid receptor kappa 1; format: functional
Kappa-type opioid receptor (Cavia porcellus), sequence (P41144 whole entry): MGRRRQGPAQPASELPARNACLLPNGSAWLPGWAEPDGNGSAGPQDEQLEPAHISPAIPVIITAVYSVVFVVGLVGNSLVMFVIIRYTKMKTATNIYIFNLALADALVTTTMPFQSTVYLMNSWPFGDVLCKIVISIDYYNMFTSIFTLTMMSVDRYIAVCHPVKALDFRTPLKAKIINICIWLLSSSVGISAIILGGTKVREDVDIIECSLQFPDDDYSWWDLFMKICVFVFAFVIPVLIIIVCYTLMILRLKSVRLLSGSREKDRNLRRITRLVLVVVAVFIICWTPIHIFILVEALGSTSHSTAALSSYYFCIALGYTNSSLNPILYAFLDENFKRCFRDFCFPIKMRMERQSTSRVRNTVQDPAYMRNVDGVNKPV

[19] = target: Kappa-type opioid receptor (Cavia porcellus) (UniProt P41144)
Description: Inhibition of [35S]GTP-gamma-S, binding in cloned Opioid receptor kappa 1 stimulated by U69, 593

[20] = target: Kappa-type opioid receptor (Cavia porcellus) (UniProt P41144); remark: listed apart in the source
Description: Inhibition of [35S]GTP-gamma-S, binding in guines pig caudate stimulated by U50, 488 of Opioid receptor kappa 1

[21] = target: Mu-type opioid receptor (Cavia porcellus) (UniProt P97266)
Description: Inhibition of [35S]GTP-gamma-S, binding in cloned Opioid receptor mu 1 stimulated by DAMGO

Rattus norvegicus [22] = assay: Time during which activity returned to baseline level in rat by oral administration; format: functional
Rattus norvegicus [23] = assay: Time taken to produce maximal locomotor activity at 30 min period in rat by oral administration; format: functional
Rattus norvegicus [24] = assay: Effective dose of compound required to produce maximal locomotor activity in cocaine-trained rat by oral administration; format: functional
Rattus norvegicus [25] = assay: Effective dose of compound required to produce maximal locomotor activity in rat by oral administration; format: functional
Rattus norvegicus [26] = assay: Maximal locomotor activity of compound compared as a percent of cocaine's effect in rat by oral administration; format: functional
[27] = target: Delta-type opioid receptor (Homo sapiens) (UniProt P41143); details: Cavia porcellus
Delta-type opioid receptor (Homo sapiens), sequence (P41143 whole entry): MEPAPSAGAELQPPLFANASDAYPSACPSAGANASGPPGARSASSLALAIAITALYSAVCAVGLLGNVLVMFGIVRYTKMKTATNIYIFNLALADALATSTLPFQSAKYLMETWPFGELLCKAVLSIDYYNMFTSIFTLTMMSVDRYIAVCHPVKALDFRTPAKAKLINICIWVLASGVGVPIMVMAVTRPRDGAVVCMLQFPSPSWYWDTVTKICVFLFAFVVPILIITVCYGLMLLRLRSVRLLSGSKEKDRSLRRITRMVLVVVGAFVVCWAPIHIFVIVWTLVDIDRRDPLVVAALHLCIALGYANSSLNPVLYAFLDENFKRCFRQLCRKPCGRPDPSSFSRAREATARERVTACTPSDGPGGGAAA
Description: Inhibition of [35S]GTP-gamma-S, binding in guines pig caudate stimulated by SNC-80 to Opioid receptor delta 1

Mu-type opioid receptor = Mu-type opioid receptor (Cavia porcellus, UniProt P97266); assay: Inhibition of binding of [3H]DAMGO to Opioid receptor mu 1 in guinea pig membranes; format: cell membranes
Mu-type opioid receptor, sequence (P97266 whole entry): as the sequence (P97266 whole entry) above

[28] = target: Delta-type opioid receptor (Homo sapiens) (UniProt P41143); details: Cavia porcellus; remark: listed apart in the source
Description: Inhibition of [35S]GTP-gamma-S, binding in cloned Opioid receptor delta 1 stimulated by SNC-80

[29] = target: Kappa-type opioid receptor (Cavia porcellus) (UniProt P41144); remark: listed apart in the source
Description: Inhibition of [35S]GTP-gamma-S, binding in cloned Opioid receptor kappa 1 stimulated by U50,488

D(1A) dopamine receptor (Rattus norvegicus), sequence (P18901 whole entry): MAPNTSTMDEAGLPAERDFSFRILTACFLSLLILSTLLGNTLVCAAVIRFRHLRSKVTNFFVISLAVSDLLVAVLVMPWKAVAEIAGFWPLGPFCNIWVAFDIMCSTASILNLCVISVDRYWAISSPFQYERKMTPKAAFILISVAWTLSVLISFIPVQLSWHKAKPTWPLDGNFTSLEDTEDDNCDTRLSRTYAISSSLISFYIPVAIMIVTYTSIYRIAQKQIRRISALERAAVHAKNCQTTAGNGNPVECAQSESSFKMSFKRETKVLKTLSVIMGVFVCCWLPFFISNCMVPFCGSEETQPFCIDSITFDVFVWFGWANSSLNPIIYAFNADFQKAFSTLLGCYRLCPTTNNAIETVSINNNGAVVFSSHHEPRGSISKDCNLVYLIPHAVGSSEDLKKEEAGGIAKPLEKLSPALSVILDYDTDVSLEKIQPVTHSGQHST

Structure (SMILES): CN1CCc2cc(Cl)c(O)cc2[C@@H](c2ccccc2)C1
- NC [1]: inactive
- NC [2]: inactive

Structure (SMILES): COC(=O)C1C2CC[C@H](C[C@@H]1c1ccc(Cl)c(C)c1)N2C (some centres undefined)
- AD50 (Mus musculus [3]): 1.5 mM/kg
- Peak time (Rattus norvegicus [4]): 30 min
- IC50 [5]: 1 nM
- IC50 [6]: 36.2 nM
- Time (Rattus norvegicus [7]): >4 h
- Ki [8]: 2.8 nM
- ED50 (Rattus norvegicus [9]): 0.21 mg/kg
- IC50 [10]: 0.6 nM
- IC50 [11]: 10.5 nM
- Ki [11]: 0.95 nM
- IC50 [12]: 0.8 nM
- ED50 (Rattus norvegicus [13]): 2.2 mg/kg
- AD50 (Mus musculus [14]): 3.5 mM/kg
- IC50 [15]: 0.81 nM
- Maximal locomotor activity (% of cocaine) (Rattus norvegicus [16]): 75%

Structure (SMILES): COC(=O)[C@@H]1C2CC[C@H](C[C@@H]1c1ccccc1)N2C.Cl
- Peak time (Rattus norvegicus [4]): 10 min
- Time (Rattus norvegicus [7]): 2 h
- Ki [8]: 554 nM
- ED50 (Rattus norvegicus [9]): 0.35 mg/kg
- ED50 (Rattus norvegicus [13]): 2.1 mg/kg
- Maximal locomotor activity (% of cocaine) (Rattus norvegicus [16]): 146%

Structure (SMILES): CC(C)[C@@H](CN1CC[C@@](C)(c2cccc(O)c2)[C@@H](C)C1)NC(=O)CCc1ccc(O)cc1
- Ke [17]: 7.25 nM
- Ke [18]: 4.7 nM

Structure (SMILES): CN1C2CC[C@@H]1C[C@H](c1ccc(Cl)cc1)C2C(=O)N1CCCC1 (some centres undefined)
- IC50 [6]: 3940 nM
- Ki [8]: 2370 nM
- IC50 [11]: 12400 nM
- Ki [11]: 1130 nM
- IC50 [15]: 1.38 nM

Structure (SMILES): Oc1ccc2c3c1O[C@H]1c4[nH]c5c(c4C[C@@]4(O)[C@@H](C2)N(CC2CC2)CC[C@]314)C[C@@]1(O)[C@H]2Cc3ccc(O)c4c3[C@@]1(CCN2CC1CC1)[C@H]5O4
- Ke [17]: 16.8 nM
- Ke [19]: 0.07 nM
- Ke [20]: 0.038 nM
- Ke [21]: 15.8 nM

Structure (SMILES): CC1CN(C)C2CCCC1(c1cccc(O)c1)C2 (centres undefined)
- Ke [17]: 25.2 nM
- Ke [18]: 76.4 nM

Structure (SMILES): CN1C2CC[C@@H]1C[C@H](c1ccc(Cl)cc1)C2C(=O)OCCc1ccc(N)cc1 (some centres undefined)
- IC50 [15]: 2.16 nM

Structure (SMILES): Cc1ccc([C@H]2C[C@H]3CCC(C2C(=O)OC(C)C)N3C)cc1 (some centres undefined)
- Time (Rattus norvegicus [22]): >4 h
- Peak time (Rattus norvegicus [23]): 100 min
- Peak time (Rattus norvegicus [4]): 10 min
- IC50 [6]: 1930 nM
- Time (Rattus norvegicus [7]): >4 h
- Ki [8]: 1160 nM
- ED50 (Rattus norvegicus [9]): 4.4 mg/kg
- IC50 [11]: 6090 nM
- Ki [11]: 554 nM
- ED50 (Rattus norvegicus [13]): 3.1 mg/kg
- ED50 (Rattus norvegicus [24]): 5.7 mg/kg
- ED50 (Rattus norvegicus [25]): 4.7 mg/kg
- Cocaine (Rattus norvegicus [26]): 116%
- IC50 [15]: 6.45 nM
- Maximal locomotor activity (% of cocaine) (Rattus norvegicus [16]): 103%

Structure (SMILES): COC(=O)C1C2CC[C@H](C[C@@H]1c1cccc(I)c1)N2 (some centres undefined)
- IC50 [6]: 1600 nM
- Ki [8]: 964 nM
- IC50 [11]: 39 nM
- Ki [11]: 3.6 nM
- IC50 [15]: 26 nM

Structure (SMILES): C[C@H]1CN(CC[C@H](O)C2CCCCC2)CC[C@@]1(C)c1cccc(O)c1
- Ke [27]: 0.312 nM
- Ki (Mu-type opioid receptor): 0.32 nM
- Ke [17]: 0.021 nM
- Ke [18]: 0.33 nM

Structure (SMILES): COC(=O)C1C2CC[C@H](C[C@@H]1c1ccc(I)cc1)N2C (some centres undefined)
- Ki [8]: 21.6 nM
- Ki [11]: 0.38 nM

Structure (SMILES): CCc1ccc([C@H]2C[C@H]3CCC(N3)C2C(=O)OC)cc1 (some centres undefined)
- IC50 [6]: 122 nM
- Ki [8]: 74 nM
- IC50 [11]: 8.1 nM
- Ki [11]: 0.74 nM
- IC50 [15]: 50 nM

Structure (SMILES): C[C@H]1CN(C/C=C/c2ccccc2Cl)CC[C@@]1(C)c1cccc(O)c1
- Ki (Mu-type opioid receptor): 1.12 nM
- Ke [17]: 0.026 nM
- Ke [18]: 0.567 nM

Structure (SMILES): COC(=O)C1C2CC[C@H](C[C@@H]1c1ccc(C)c(F)c1)N2 (some centres undefined)
- IC50 [6]: 0.86 nM
- Ki [8]: 0.43 nM
- IC50 [11]: 97.4 nM
- Ki [11]: 23.8 nM
- IC50 [15]: 9 nM

Structure (SMILES): CC(C)[C@@H](CN1CC[C@@](C)(c2cccc(O)c2)[C@@H](C)C1)NC(=O)[C@H]1Cc2ccc(O)cc2CN1
- Ke [28]: > 100 nM
- Ke [29]: 6 pM
- Ke [21]: 3.42 nM

Structure (SMILES): Cc1ccc(-c2cc(C3C4CC[C@H](C[C@@H]3c3ccc(Cl)cc3)N4C)on2)cc1 (some centres undefined)
- Time (Rattus norvegicus [22]): >4 h
- Peak time (Rattus norvegicus [23]): 60 min
- Peak time (Rattus norvegicus [4]): 70 min
- IC50 [6]: 1710 nM
- Time (Rattus norvegicus [7]): >4 h
- Ki [8]: 1030 nM
- ED50 (Rattus norvegicus [9]): 5.6 mg/kg
- IC50 [11]: 5740 nM
- Ki [11]: 522 nM
- ED50 (Rattus norvegicus [13]): 4.8 mg/kg
- ED50 (Rattus norvegicus [24]): 3.54 mg/kg
- ED50 (Rattus norvegicus [25]): 14.4 mg/kg
- Cocaine (Rattus norvegicus [26]): 77%
- IC50 [15]: 4.09 nM
- Maximal locomotor activity (% of cocaine) (Rattus norvegicus [16]): 71%

Structure (SMILES): CN(C)C(=O)C1C2CC[C@H](C[C@@H]1c1ccc(Cl)cc1)N2C (some centres undefined)
- IC50 [6]: 940 nM
- Ki [8]: 566 nM
- IC50 [11]: 1080 nM
- Ki [11]: 98 nM
- IC50 [15]: 1.38 nM

Structure (SMILES): CCc1ccc([C@H]2C[C@H]3CCC(N3)C2C(=O)OC)cc1I (some centres undefined)
- IC50 [6]: 148 nM
- Ki [8]: 89 nM
- IC50 [11]: 0.69 nM
- Ki [11]: 0.063 nM
- IC50 [15]: 329 nM
